Drawing on patent US9018209B2, “Compounds and methods for the treatment of viruses and cancer” (Yale University, priority 2005, dated 2015), this text covers IC50 and CC50 for 21 compounds.

pIC50: −log10 of the molar value. Like-named read-outs stand apart in the source and are kept apart here. Bounds are passed on as bounds.

A word on the pIC50: it is the IC50 on a negative log10 scale, so that one unit is a factor of ten. What is called CC50 is the concentration giving 50% cytotoxicity. Higher therefore signals better tolerance by the cells.

The data set deals with MT-2 human T-cells. The data set is described as follows: Cytotoxicity: inhibition of MT-2 cell growth. The format is cell-based. The text has this:
The preparation of the analogues 4a-h involved the reaction between 2-bromothiazole 1 with the corresponding 5-amino-2-R-phenol 2, followed by reaction with 4-bromo-2-methyl-2-butene in presence of Cs2CO3 as a base (Scheme 1; see Table 1 for antiviral activities (EC50) and cytotoxicities (IC50) of these compounds, as determined using human MT-2 cells infected with IIIB strain of HIV-1).
See, Ruiz-Caro, supra. and Lin, et al., Biochem. Pharmacol. 1994, 47, 171-174.

The mark [1] stands for this setting: Homo sapiens, MT2, Table 1a, cytotoxicity, MT-2 cells, read-out: IC50.
The mark [2] stands for this setting: Homo sapiens, MT2, Table 3, cytotoxicity, MT-2 cells, read-out: IC50.
[3] abbreviates: Table 1B, for 50% inhibition of MT-2 cell growth, triplicate samples.
[4] abbreviates: Homo sapiens, MT2, Table of bicyclic-heteroaryl phenyl amines, cytotoxicity, MT-2 cell assays, read-out: IC50.

Turning to `COc1ccc(Nc2nc(C)cs2)cc1OCC=C(C)C` [Compound 8c, 4-Methyl-N-(4-methoxy-3-(3-methylbut-2-enyloxy)phenyl)thiazol-2-amine], where the note is “Homo sapiens, MT2”, the pIC50 is 4.74.
Regarding `CC(C)=CCOc1cc(Nc2ccccn2)ccc1C` [Compound 30b, N-(4-Methyl-3-(3-methylbut-2-enyloxy)phenyl)pyridin-2-amine], under setting [1], the pIC50 was 4.46.
On to `CC1=C(COc2cc(Nc3ncccn3)ccc2Cl)CCC1` [Compound 47], for which the pIC50 (Table 2a, cytotoxicity, MT-2 cells, read-out: IC50) was 5.60.
For the compound `CC1=C(COc2cc(Nc3nccs3)ccc2Cl)CCC1` [Compound 21d, N-(4-Chloro-3-((2-methylcyclopent-1-enyl)methoxy)phenyl)thiazol-2-amine], the pIC50 under setting [2] was 5.60.
For `COc1ccnc(Nc2ccc(Cl)c(Oc3ccccc3C)c2)n1` [Compound 11e], the CC50 (Table 2b, MT-2 cells) is 13 µM.
On to `CC(C)=CCOc1cc(Nc2ccnc(N)n2)ccc1C` [Compound 45b, N^4-(4-Methyl-3-(3-methylbut-2-enyloxy)phenyl)pyrimidin-2,4-diamine], for which, under setting [1], the pIC50 is 6.22.
Turning to `CC(C)=CCOc1cc(Nc2ccccn2)ccc1C#N` [Compound 30h, N-(4-Cyano-3-(3-methylbut-2-enyloxy)phenyl)pyridin-2-amine], the pIC50 under setting [1] is 6.54.
The same measure, in the same setting: for `CC(C)=CCOc1cc(Nc2ccccn2)ccc1Cl` [Compound 30d, N-(4-Chloro-3-(3-methylbut-2-enyloxy)phenyl)pyridin-2-amine] the value was 4.82.
Under “Homo sapiens, MT2”, `CCOC(=O)c1csc(Nc2cccc(OCC=C(C)C)c2)n1` [Compound 9a, Ethyl 2-(3-(3-methylbut-2-enyloxy)phenylamino)thiazole-4-carboxylate] had a pIC50 of 4.68.
Take `CC(C)=CCOc1cc(Nc2ccnc(N)n2)ccc1Cl` [Compound 45d, N^4-(4-Chloro-3-(3-methylbut-2-enyloxy)phenyl)pyrimidin-2,4-diamine]: the pIC50 under setting [1] is 5.70.
`CC(C)=CCOc1cc(Nc2nc(C)cs2)ccc1C` [Compound 8b, 4-Methyl-N-(4-methyl-3-(3-methylbut-2-enyloxy)phenyl)thiazol-2-amine] gave a pIC50 (Homo sapiens, MT2) of 4.82.
As for `CC(C)=CCOc1cc(Nc2nccc(CO)n2)ccc1Cl` [Compound 9m], half-maximal cytotoxicity under setting [3] (CC50) was put at 0.22 µM.
`Cc1ccnc2c1NC(=O)c1cccnc1N2C1CC1` [Nevirapine, nevirapine, reference compound]: the pIC50 is less than 5.00 under setting [1] and less than 5.00 under setting [4]. For the same compound, the CC50 under setting [3] is more than 10 µM.
`COCc1ccnc(Nc2ccc(Cl)c(OCC=C(C)C)c2)n1` [Compound 9l] had a half-maximal cytotoxic concentration (CC50) under setting [3] of more than 25 µM.
For the compound `CC(C)=CC(C)Oc1cc(Nc2nccs2)ccc1Cl` (stereo not drawn) [Compound 19d, N-(4-Chloro-3-(4-methylpent-3-en-2-yloxy)phenyl)thiazol-2-amine], the negative logarithm of the IC50 (pIC50) under setting [2] is 4.66.
Consider `CC(C)=CCOc1cc(Nc2ncnc(Cl)n2)ccc1Cl` [Compound 7a], for which the 50% cytotoxic concentration (CC50) under setting [3] stood at 45 µM.
With `CC(C)=CCOc1cccc(Nc2nc(C)cs2)c1` [Compound 8a, 4-Methyl-N-(3-(3-methylbut-2-enyloxy)phenyl)thiazol-2-amine], where the note is “Homo sapiens, MT2”, the pIC50 is 4.59.
Turning to `Cc1cc(C#N)cc(C)c1Oc1nc(Nc2ccc(C#N)cc2)nc(N)c1Br` [TMC125, etravirine, reference compound], under setting [4], the pIC50 is less than 6.00. The compound further registered a CC50 under setting [3] of more than 1 µM.
Consider `CC(C)=CC(C)Oc1cc(Nc2ncccn2)ccc1Cl` (stereo not drawn) [Compound 46, N-(4-chloro-3-(4-methylpent-3-en-2-yloxy)phenyl)pyrimidin-2-amine], for which the pIC50 (Homo sapiens, MT2, Table 2a, cytotoxicity, MT-2 cells, read-out: IC50) is 4.66.
In turn, `CCOC(=O)c1csc(Nc2ccc(C)c(OCC=C(C)C)c2)n1` [Compound 9b, Ethyl 2-(4-methyl-3-(3-methylbut-2-enyloxy)phenylamino)thiazole-4-carboxylate] gave a pIC50 (Homo sapiens, MT2) of 4.96.
With `N#Cc1ccc(Nc2nccs2)cc1OC1=CCCC1` [Compound 20h, N-(4-Cyano-3-(cyclopentenyloxy)phenyl)thiazol-2-amine], the pIC50 under setting [2] is 5.77.
